The target of one assay is T1, c-kit kinase (Homo sapiens, UniProt P10721).
T1 construct: The c-kit (or kinase domain thereof) is an active kinase in AlphaScreen; poly-Histidine tag (in-house protein only) (cleaved yes); host or cells: E. coli BL21(DE3)RIL, co-expressed with PTP1B
In words: c-Kit biochemical assay, AlphaScreen, 10 μM ATP. Particulars: c-kit biochemical inhibitory activity; read-out: Biochemical activity (IC50 μM) Kit. The method in brief:
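His-tagged c-Kit expressed in E. coli with co-expressed PTP1B (dephosphorylated), tag removed; 0.1 ng per reaction with biotinylated-peptide substrate in 50 mM HEPES pH 7.2, 5 mM MgCl2, 5 mM MnCl2, 5% DMSO, 10 μM ATP, 1 h at room temperature. Phosphorylation detected by AlphaScreen (streptavidin donor, PY20 acceptor beads); IC50 from 8-point 1:3 dilution series.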

In another assay the target is T2, c-kit mutant D816V (Homo sapiens, UniProt P10721, D816V/DEL694-753).
T2 construct: residues 551-934, kinase insertion domain residues 694-753 deleted; 6x-histidine (N); made in house; host or cells: E. coli Arctic Express (DE3) RIL (Stratagene)
In words: c-Kit mutant D816V biochemical assay, AlphaScreen. As to conditions: c-kit D816V biochemical inhibitory activity; read-out: Biochemical activity (IC50 μM) Kit D816V. The procedure, abridged: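 Purified His-tagged c-Kit D816V (E. coli-expressed) assayed in 25 mM HEPES pH 7.2 with Mg/Mn, 5% DMSO and 10 μM ATP, 30 min at room temperature, 8-point 1:3 dilutions. Phosphorylation detected by AlphaScreen with streptavidin donor and PY20 acceptor beads; IC50 from signal versus concentration.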

The source of these data is patent US10227357B2, “Compounds and methods for kinase modulation, and indications therefor” (Plexxikon Inc., priority 2012, dated 2019).

T1 sequence (P10721 26-976): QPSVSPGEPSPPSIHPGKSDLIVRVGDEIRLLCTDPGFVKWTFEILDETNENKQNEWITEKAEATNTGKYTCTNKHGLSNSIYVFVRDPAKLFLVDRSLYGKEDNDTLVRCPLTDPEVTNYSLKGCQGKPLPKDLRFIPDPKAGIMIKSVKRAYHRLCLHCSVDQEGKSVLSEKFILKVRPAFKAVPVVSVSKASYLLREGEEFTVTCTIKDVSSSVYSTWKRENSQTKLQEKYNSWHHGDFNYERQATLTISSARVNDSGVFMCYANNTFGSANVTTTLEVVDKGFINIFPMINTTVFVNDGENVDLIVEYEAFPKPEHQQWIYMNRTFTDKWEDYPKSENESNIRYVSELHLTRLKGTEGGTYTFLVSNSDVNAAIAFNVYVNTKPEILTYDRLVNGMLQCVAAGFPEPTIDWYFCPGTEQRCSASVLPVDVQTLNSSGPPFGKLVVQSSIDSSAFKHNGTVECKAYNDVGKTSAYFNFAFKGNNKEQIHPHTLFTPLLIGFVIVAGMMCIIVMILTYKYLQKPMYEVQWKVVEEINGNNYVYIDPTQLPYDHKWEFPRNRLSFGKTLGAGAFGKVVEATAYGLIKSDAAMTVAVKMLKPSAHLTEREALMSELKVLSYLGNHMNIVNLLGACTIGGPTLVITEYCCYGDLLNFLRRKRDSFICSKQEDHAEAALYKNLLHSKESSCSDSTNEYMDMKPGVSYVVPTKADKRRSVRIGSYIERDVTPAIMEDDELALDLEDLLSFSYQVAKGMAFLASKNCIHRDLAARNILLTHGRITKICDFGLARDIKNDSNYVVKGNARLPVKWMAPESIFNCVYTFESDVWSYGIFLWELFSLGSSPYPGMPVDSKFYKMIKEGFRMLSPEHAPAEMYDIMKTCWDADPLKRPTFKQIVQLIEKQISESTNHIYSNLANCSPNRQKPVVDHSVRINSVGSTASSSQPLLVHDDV
T2 sequence (P10721 with tags, fused parts or gaps DEL694-753/D816V): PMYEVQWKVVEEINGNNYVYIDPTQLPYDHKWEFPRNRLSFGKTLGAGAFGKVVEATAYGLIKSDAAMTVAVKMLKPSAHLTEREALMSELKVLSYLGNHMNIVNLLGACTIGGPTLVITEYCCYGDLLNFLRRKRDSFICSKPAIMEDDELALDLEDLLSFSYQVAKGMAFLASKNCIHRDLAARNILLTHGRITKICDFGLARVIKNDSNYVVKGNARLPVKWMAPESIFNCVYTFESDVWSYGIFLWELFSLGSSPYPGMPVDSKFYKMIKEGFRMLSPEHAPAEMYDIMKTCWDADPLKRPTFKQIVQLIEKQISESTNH

On to `COc1cc(NC(=O)N2CCN(c3ncnc4[nH]c(-c5cccnc5)cc34)CC2)cc(OC)c1` [P-0229, N-(3,5-dimethoxyphenyl)-4-[6-(3-pyridyl)-7H-pyrrolo[2,3-d]pyrimidin-4-yl]piperazine-1-carboxamide], for which the IC50 at c-kit kinase was in the range of 1 to 10 µM; at c-kit mutant D816V, 0.0001 to 1 µM.

With `CC(C)(C)OC(=O)N1CCN(c2ncnc3[nH]c(-c4cccnc4)cc23)CC1` [P-0232, tert-butyl 4-[6-(3-pyridyl)-7H-pyrrolo[2,3-d]pyrimidin-4-yl]piperazine-1-carboxylate], the IC50 at c-kit kinase and on c-kit mutant D816V was 10 to 200 µM in each case.

On to `c1nc(N2CCNCC2)c2cc[nH]c2n1` [P-0233, 4-piperazin-1-yl-7H-pyrrolo[2,3-d]pyrimidine], for which the IC50 at c-kit kinase and on c-kit mutant D816V was 10 to 200 µM each time.

Take `COc1ccc(C(=O)N2CCN(c3ncnc4[nH]ccc34)CC2)cc1` [P-0234, (4-methoxyphenyl)-[4-(7H-pyrrolo[2,3-d]pyrimidin-4-yl)piperazin-1-yl]methanone]: the IC50 at c-kit kinase and on c-kit mutant D816V was 10 to 200 µM each time.

Turning to `COc1ccc(NC(=O)N2CCN(c3ncnc4[nH]ccc34)CC2)cc1` [P-0235, N-(4-methoxyphenyl)-4-(7H-pyrrolo[2,3-d]pyrimidin-4-yl)piperazine-1-carboxamide], the IC50 at c-kit kinase was in the range of 10 to 200 µM; at c-kit mutant D816V, 1 to 10 µM.

As for `CCCNC(=O)N1CCN(c2ncnc3[nH]c(-c4ccccc4)cc23)CC1` [P-0236, 4-(6-phenyl-7H-pyrrolo[2,3-d]pyrimidin-4-yl)-N-propyl-piperazine-1-carboxamide], the IC50 on c-kit kinase is 1 to 10 µM; at c-kit mutant D816V, 10 to 200 µM.

In the case of `O=C(Nc1ccccc1Cl)N1CCN(c2ncnc3[nH]c(-c4ccccc4)cc23)CC1` [P-0237, N-(2-chlorophenyl)-4-(6-phenyl-7H-pyrrolo[2,3-d]pyrimidin-4-yl)piperazine-1-carboxamide], the IC50 on c-kit kinase was in the range of 0.0001 to 1 µM; at c-kit mutant D816V, 1 to 10 µM.

On to `COc1cc(NC(=O)N2CCN(c3ncnc4[nH]c(-c5ccccc5)cc34)CC2)cc(OC)c1` [P-0239, N-(3,5-dimethoxyphenyl)-4-(6-phenyl-7H-pyrrolo[2,3-d]pyrimidin-4-yl)piperazine-1-carboxamide], for which the IC50 on c-kit kinase was in the range of 0.0001 to 1 µM; at c-kit mutant D816V it was 1 to 10 µM.

Consider `CCCNS(=O)(=O)N1CCN(c2ncnc3[nH]c(-c4ccccc4)cc23)CC1` [P-0241, 4-(6-phenyl-7H-pyrrolo[2,3-d]pyrimidin-4-yl)-N-propyl-piperazine-1-sulfonamide], for which the IC50 on c-kit kinase was in the range of 1 to 10 µM; at c-kit mutant D816V, 0.0001 to 1 µM.

On to `O=C(NCc1ccc(F)cc1)N1CCN(c2ncnc3[nH]c(-c4ccccc4)cc23)CC1` [P-0242, N-[(4-fluorophenyl)methyl]-4-(6-phenyl-7H-pyrrolo[2,3-d]pyrimidin-4-yl)piperazine-1-carboxamide], for which the results for the IC50 on c-kit kinase and at c-kit mutant D816V were 0.0001 to 1 µM and 1 to 10 µM, respectively.

For the compound `COc1cc2ncnc(-c3ccc(S(=O)(=O)Nc4ccc(Cl)cc4)cc3F)c2cc1OCCCN1CCOCC1` [P-0247, N-(4-chlorophenyl)-3-fluoro-4-[7-methoxy-6-(3-morpholinopropoxy)quinazolin-4-yl]benzenesulfonamide], the IC50 is 1 to 10 µM on c-kit kinase and 0.0001 to 1 µM on c-kit mutant D816V.

With `COc1cc2ncnc(-c3ccc(S(=O)(=O)Nc4ccc(F)cc4)cc3F)c2cc1OCCCN1CCOCC1` [P-0248, 3-fluoro-N-(4-fluorophenyl)-4-[7-methoxy-6-(3-morpholinopropoxy)quinazolin-4-yl]benzenesulfonamide], the results for the IC50 on c-kit kinase and at c-kit mutant D816V were 10 to 200 µM and 1 to 10 µM, respectively.

`COc1ccc(S(=O)(=O)Nc2ccc(-c3ncnc4cc(OC)c(OCCCN5CCOCC5)cc34)c(F)c2)cc1` [P-0249, N-[3-fluoro-4-[7-methoxy-6-(3-morpholinopropoxy)quinazolin-4-yl]phenyl]-4-methoxy-benzenesulfonamide]: the IC50 at c-kit kinase was in the range of 1 to 10 µM; on c-kit mutant D816V, 0.0001 to 1 µM.

With `COc1cc2ncnc(-c3ccc(NS(=O)(=O)c4ccc(Cl)cc4)cc3F)c2cc1OCCCN1CCOCC1` [P-0250, 4-chloro-N-[3-fluoro-4-[7-methoxy-6-(3-morpholinopropoxy)quinazolin-4-yl]phenyl]benzenesulfonamide], the half-maximal inhibitory concentration (IC50) at c-kit kinase and on c-kit mutant D816V was 0.0001 to 1 µM each time.

As for `COc1cc2ncnc(-c3ccc(NS(=O)(=O)C4CC4)cc3F)c2cc1OCCCN1CCOCC1` [P-0251, N-[3-fluoro-4-[7-methoxy-6-(3-morpholinopropoxy)quinazolin-4-yl]phenyl]cyclopropanesulfonamide], the IC50 on c-kit kinase lay in the range of 10 to 200 µM; on c-kit mutant D816V it was 0.0001 to 1 µM.

On to `COc1cc2ncnc(-c3ccc(NS(C)(=O)=O)cc3F)c2cc1OCCCN1CCOCC1` [P-0252, N-[3-fluoro-4-[7-methoxy-6-(3-morpholinopropoxy)quinazolin-4-yl]phenyl]methanesulfonamide], for which the IC50 lay within 10 to 200 µM on c-kit kinase and 0.0001 to 1 µM at c-kit mutant D816V.

For `COc1cc2c(-c3ccc(NS(=O)(=O)N4CCCC4)cc3F)ncnc2cc1OCCCN1CCCCC1` [P-0253, N-[3-fluoro-4-[6-methoxy-7-[3-(1-piperidyl)propoxy]quinazolin-4-yl]phenyl]pyrrolidine-1-sulfonamide], the figures for the IC50 at c-kit kinase and at c-kit mutant D816V were 1 to 10 µM and 0.0001 to 1 µM, respectively.

On to `[2H]C([2H])([2H])S(=O)(=O)Nc1ccc(-c2ncnc3cc(OCCCN4CCCCC4)c(OC)cc23)c(F)c1` [P-0254, 1,1,1-trideuterio-N-[3-fluoro-4-[6-methoxy-7-[3-(1-piperidyl)propoxy]quinazolin-4-yl]phenyl]methanesulfonamide], for which the IC50 was in the range of 1 to 10 µM on c-kit kinase and 0.0001 to 1 µM at c-kit mutant D816V.

With `COc1ccc(S(=O)(=O)Nc2ccc(-c3ncnc4cc(OCCCN5CCCCC5)c(OC)cc34)c(F)c2)cc1` [P-0255, N-[3-fluoro-4-[6-methoxy-7-[3-(1-piperidyl)propoxy]quinazolin-4-yl]phenyl]-4-methoxy-benzenesulfonamide], the IC50 at c-kit kinase and at c-kit mutant D816V was 0.0001 to 1 µM throughout.

In the case of `COc1cc2c(-c3ccc(NS(=O)(=O)c4ccc(Cl)cc4)cc3F)ncnc2cc1OCCCN1CCCCC1` [P-0256, 4-chloro-N-[3-fluoro-4-[6-methoxy-7-[3-(1-piperidyl)propoxy]quinazolin-4-yl]phenyl]benzenesulfonamide], the IC50 at c-kit kinase and at c-kit mutant D816V was 0.0001 to 1 µM throughout.

For the compound `COc1cc2c(-c3ccc(NS(=O)(=O)C4CC4)cc3F)ncnc2cc1OCCCN1CCCCC1` [P-0257, N-[3-fluoro-4-[6-methoxy-7-[3-(1-piperidyl)propoxy]quinazolin-4-yl]phenyl]cyclopropanesulfonamide], the IC50 lay within 1 to 10 µM on c-kit kinase and 0.0001 to 1 µM at c-kit mutant D816V.

As for `COc1cc2c(-c3ccc(NS(C)(=O)=O)cc3F)ncnc2cc1OCCCN1CCCCC1` [P-0258, N-[3-fluoro-4-[6-methoxy-7-[3-(1-piperidyl)propoxy]quinazolin-4-yl]phenyl]methanesulfonamide], the IC50 was 1 to 10 µM at c-kit kinase and 0.0001 to 1 µM at c-kit mutant D816V.

`COCCOc1cc2ncnc(-c3ccc(NS(=O)(=O)c4ccc(OC(F)F)cc4)cc3F)c2cc1OCCOC` [P-0259, N-[4-[6,7-bis(2-methoxyethoxy)quinazolin-4-yl]-3-fluoro-phenyl]-4-(difluoromethoxy)benzenesulfonamide]: the IC50 on c-kit kinase lay in the range of 1 to 10 µM; at c-kit mutant D816V it was 0.0001 to 1 µM.

`COCCOc1cc2ncnc(-c3ccc(NS(=O)(=O)c4cccc(F)c4)cc3F)c2cc1OCCOC` [P-0260, N-[4-[6,7-bis(2-methoxyethoxy)quinazolin-4-yl]-3-fluoro-phenyl]-3-fluoro-benzenesulfonamide]: the figures for the IC50 at c-kit kinase and on c-kit mutant D816V were 1 to 10 µM and 0.0001 to 1 µM, respectively.

On to `COCCOc1cc2ncnc(-c3ccc(NS(=O)(=O)c4ccc(Cl)cc4)cc3F)c2cc1OCCOC` [P-0261, N-[4-[6,7-bis(2-methoxyethoxy)quinazolin-4-yl]-3-fluoro-phenyl]-4-chloro-benzenesulfonamide], for which the IC50 on c-kit kinase and on c-kit mutant D816V was 0.0001 to 1 µM in each case.

Turning to `COCCOc1cc2ncnc(-c3ccc(NS(=O)(=O)c4ccc(OC)cc4)cc3F)c2cc1OCCOC` [P-0262, N-[4-[6,7-bis(2-methoxyethoxy)quinazolin-4-yl]-3-fluoro-phenyl]-4-methoxy-benzenesulfonamide], the IC50 on c-kit kinase and on c-kit mutant D816V was 0.0001 to 1 µM in each case.

As for `COCCOc1cc2ncnc(-c3ccc(NS(=O)(=O)C4CC4)cc3F)c2cc1OCCOC` [P-0263, N-[4-[6,7-bis(2-methoxyethoxy)quinazolin-4-yl]-3-fluoro-phenyl]cyclopropanesulfonamide], the IC50 on c-kit kinase fell in the range of 10 to 200 µM; at c-kit mutant D816V, 0.0001 to 1 µM.

On to `COCCOc1cc2ncnc(-c3ccc(NS(C)(=O)=O)cc3F)c2cc1OCCOC` [P-0264, N-[4-[6,7-bis(2-methoxyethoxy)quinazolin-4-yl]-3-fluoro-phenyl]methanesulfonamide], for which the IC50 is 10 to 200 µM on c-kit kinase and 0.0001 to 1 µM on c-kit mutant D816V.

On to `O=S(=O)(Nc1ccc(-c2ncnc3cc4c(cc23)OCCO4)c(F)c1)C1CC1` [P-0265, N-[4-(7,8-dihydro-[1,4]dioxino[2,3-g]quinazolin-4-yl)-3-fluoro-phenyl]cyclopropanesulfonamide], for which the IC50 on c-kit kinase and on c-kit mutant D816V was 10 to 200 µM throughout.
